Each molecule was assayed against T1, p70S6K (Homo sapiens, UniProt P23443, T412E) (assay: p70S6 Kinase Assay (Luciferase-Coupled Chemiluminescent Kinase assay, LCCA)). Settings: human p70S6 kinase domain residues 1-421, T412E; 5 μM ATP; read-out: p70S6K IC50.
T1 construct: human p70S6 kinase domain residues 1-421, containing a T412E mutation; made in house
Type: biochemical
Procedure, shortened: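 Luciferase-coupled chemiluminescence measured percent ATP remaining after the 2 h kinase reaction at ambient temperature, with ATP near the kinase's KM. Ten inhibitor concentrations were tested. IC50 was obtained from a Hill-equation fit.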

T1 sequence (P23443 1-421 T412E): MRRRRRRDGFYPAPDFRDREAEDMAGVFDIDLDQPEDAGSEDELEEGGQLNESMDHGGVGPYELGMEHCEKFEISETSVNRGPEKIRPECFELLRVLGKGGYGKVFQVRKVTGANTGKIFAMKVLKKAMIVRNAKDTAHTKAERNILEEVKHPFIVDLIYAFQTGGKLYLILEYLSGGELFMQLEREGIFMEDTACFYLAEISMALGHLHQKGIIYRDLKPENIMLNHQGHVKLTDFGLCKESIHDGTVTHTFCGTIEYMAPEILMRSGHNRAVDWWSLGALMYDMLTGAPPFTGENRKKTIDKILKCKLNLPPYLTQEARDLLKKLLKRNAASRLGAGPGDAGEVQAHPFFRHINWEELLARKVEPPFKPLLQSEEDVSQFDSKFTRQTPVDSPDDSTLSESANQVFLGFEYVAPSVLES

SMILES | IC50
CSc1nc(N)nc(N(C)CC(=O)Nc2cccc(C(C)C)c2)c1C#N [Example 110, N^2-[2-amino-5-cyano-6-(methylthio)pyrimidin-4-yl]-N^2-methyl-N-[3-(1-methylethyl)phenyl]glycinamide] | > 2000 nM
CSc1nc(N)nc(N[C@@H](CCCN/C(N)=N/[N+](=O)[O-])C(=O)Nc2cccc(C(F)(F)F)c2)c1C#N [Example 111, N^2-[2-amino-5-cyano-6-(methylthio)pyrimidin-4-yl]-N^5-[imino(nitroamino)methyl]-N-[3-(trifluoromethyl)phenyl]-L-omithinamide] | > 2000 nM
CSc1nc(N)nc(N[C@@H](C)C(=O)Nc2cccc([N+](=O)[O-])c2)c1C#N [Example 113, N^2-[2-amino-5-cyano-6-(methylthio)pyrimidin-4-yl]-N-(3-nitrophenyl)-L-alaninamide] | > 2000 nM
CSc1nc(N)nc(N[C@@H](CCCCN)C(=O)Nc2cccc(C(F)(F)F)c2)c1C#N [Example 114, N^2-[2-amino-5-cyano-6-(methylthio)pyrimidin-4-yl]-N-[3-(trifluoromethyl)phenyl]-L-lysinamide] | > 2000 nM
CCCOc1nc(N)nc(N[C@@H](C)C(=O)Nc2cccc(C(F)(F)F)c2)c1C#N [Example 115, N^2-[2-amino-5-cyano-6-(propyloxy)pyrimidin-4-yl]-N-[3-(trifluoromethyl)phenyl]-L-alaninamide] | 50 to 500 nM
COCCNc1nc(N[C@@H](C)C(=O)Nc2cccc(C(F)(F)F)c2)c(C#N)c(SC)n1 [Example 116] | > 2000 nM
CSc1nc(N)nc(N[C@@H](CCCNC(=N)N)C(=O)Nc2cccc(C(F)(F)F)c2)c1C#N [Example 117, N^2-[2-amino-5-cyano-6-(methylthio)pyrimidin-4-yl]-N-[3-(trifluoromethyl)phenyl]-L-argininamide] | > 2000 nM
C[C@@H](C(=O)Nc1cccc(C(F)(F)F)c1)N(C)c1nc(N)nc([S+](C)[O-])c1C#N (stereo partly drawn) [Example 118, N^2-[2-amino-5-cyano-6(methylsulfinyl)pyrimidin-4-yl]-N^2-methyl-N-[3-(trifluoromethyl)phenyl]-L-alaninamide] | > 2000 nM
COc1nc(N)nc(N(C)[C@@H](C)C(=O)Nc2cccc(C(F)(F)F)c2)c1C#N [Example 119, N^2-[2-amino-5-cyano-6-(methyloxy)pyrimidin-4-yl]-N^2-methyl-N-[3-(trifluoromethyl)phenyl]-L-alaninamide] | > 2000 nM
CCCOc1nc(N)nc(N(C)[C@@H](C)C(=O)Nc2cccc(C(F)(F)F)c2)c1C#N [Example 120, N^2-[2-amino-5-cyano-6-(propyloxy)pyrimidin-4-yl]-N^2-methyl-N-[3-(trifluoromethyl)phenyl]-L-alaninamide] | > 2000 nM
CCOc1nc(N)nc(N(C)[C@@H](C)C(=O)Nc2cccc(C(F)(F)F)c2)c1C#N [Example 121, N^2-[2-amino-5-cyano-6-(ethyloxy)pyrimidin-4-yl]-N^2-methyl-N-[3-(trifluoromethyl)phenyl]-L-alaninamide] | > 2000 nM
CC(C)Oc1nc(N)nc(N[C@@H](C)C(=O)Nc2cccc(C(F)(F)F)c2)c1C#N [Example 122, N^2-{2-amino-5-cyano-6-[(1-methylethyl)oxy]pyrimidin-4-yl}-N-[3-(trifluoromethyl)phenyl]-L-alaninamide] | > 2000 nM
CSc1nc(N)nc(N[C@@H](CCCNC(C)=O)C(=O)Nc2cccc(C(F)(F)F)c2)c1C#N [Example 123, N^5-acetyl-N^2-[2-amino-5-cyano-6-(methylthio)pyrimidin-4-yl]-N-[3-(trifluoromethyl)phenyl]-L-ornithinamide] | > 2000 nM
CSc1nc(N)nc(N[C@@H](C)C(=O)Nc2cccc(N)c2)c1C#N [Example 124, N^2-[2-amino-5-cyano-6-(methylthio)pyrimidin-4-yl]-N-(3-aminophenyl)-L-alaninamide] | > 2000 nM
CSc1nc(N)nc(N[C@@H](C)C(=O)Nc2cc(C(=O)NCCN(C)C)cc(C(F)(F)F)c2)c1C#N [Example 125, 3-({N-[2-amino-5-cyano-6-(methylthio)pyrimidin-4-yl]-L-alanyl}amino)-N-[2-(dimethylamino)ethyl]-5-(trifluoromethyl)benzamide] | > 2000 nM
COCCOC(=O)NCCC[C@H](Nc1nc(N)nc(SC)c1C#N)C(=O)Nc1cccc(C(F)(F)F)c1 [Example 126, 2-(methyloxy)ethyl ((4S)-4-{[2-amino-5-cyano-6-(methylthio)pyrimidin-4-yl]amino}-5-oxo-5-{[3-(trifluoromethyl)phenyl]amino}pentyl)carbamate] | > 2000 nM
CCOc1nc(N)nc(NNC(=O)Nc2cccc(C(F)(F)F)c2)c1C#N [Example 127, 2-[2-amino-5-cyano-6-(ethyloxy)pyrimidin-4-yl]-N-[3-(trifluoromethyl)phenyl]hydrazinecarboxamide] | > 2000 nM
CCOc1nc(N)nc(N[C@@H](CCCNC(=O)OC(C)(C)C)C(=O)Nc2cccc(C(F)(F)F)c2)c1C#N [Example 128, 1,1-dimethylethyl((4S)-4-{[2-amino-5-cyano-6-(ethyloxy)pyrimidin-4-yl]amino}-5-oxo-5-{[3-(trifluoromethyl)phenyl]amino}pentyl)carbamate] | > 2000 nM
CSc1nc(N)nc(N[C@@H](CCC(N)=O)C(=O)Nc2cccc(C(F)(F)F)c2)c1C#N [Example 139] | 50 to 500 nM
CSc1nc(N)nc(N[C@@H](CCCN2CCOCC2)C(=O)Nc2cccc(C(F)(F)F)c2)c1C#N [Example 143, N~2~-[2-amino-5-cyano-6-(methylthio)pyrimidin-4-yl]-5-morpholin-4-yl-N-[3-(trifluoromethyl)phenyl]-L-norvalinamide] | 50 to 500 nM
COCCNCCC[C@H](Nc1nc(N)nc(SC)c1C#N)C(=O)Nc1cccc(C(F)(F)F)c1 [Example 144, N~2~-[2-amino-5-cyano-6-(methylthio)pyrimidin-4-yl]-N~5~-[2-(methyloxy)ethyl]-N-[3-(trifluoromethyl)phenyl]-L-omithinamide] | 500 to 2000 nM
CSc1nc(N)nc(N[C@@H](C)C(=O)Nc2cc(C(=O)O)cc(C(F)(F)F)c2)c1C#N [Example 145] | 500 to 2000 nM
COC(=O)CC[C@H](Nc1nc(N)nc(SC)c1C#N)C(=O)Nc1cccc(C(F)(F)F)c1 [Example 146, methyl N~2~-[2-amino-5-cyano-6-(methylthio0pyrimidin-4-yl]-N-'-(trifluoromethyl)phenyl]-L-alpha-glutaminate] | 500 to 2000 nM
CSc1nc(N)nc(N[C@@H](CCC(=O)O)C(=O)Nc2cccc(C(F)(F)F)c2)c1C#N [Example 149, N~2~-[2-amino-5-cyano-6-(methylthio)pyrimidin-4-yl]-N-[3-(trifluoromethyl)phenyl]-Lalpha-glutamine] | 500 to 2000 nM
CCOc1nc(N)nc(N[C@@H](CO)C(=O)Nc2cccc(C(F)(F)F)c2)c1C#N [Example 150, N~2~-[2-amino-5-cyano-6-(ethyloxy)pyrimidin-4-yl]-N-[3-(trifluoromethyl)phenyl]-L-serinamide] | 500 to 2000 nM
CCOc1nc(N)nc(N[C@@H](COCc2ccccc2)C(=O)Nc2cccc(C(F)(F)F)c2)c1C#N [Example 151, N~2~-[2-amino-5-cyano-6-(ethyloxy)pyrimidin-4-yl]-O-(phenylmethyl)-N-[3-(trifluoromethyl)phenyl]-L-serinamide] | > 2000 nM

Source: patent US7816353B2 (Exelixis, Inc., priority 2003, dated 2010)
